From the supplement of paper PMC10307832

Experiments:
Assay in all cases: relative viability (nuclei count vs DMSO), 5 days (fraction); higher = more cells survive
[1] = compound: C[C@@H](Oc1cc(-c2cnn(C3CCNCC3)c2)cnc1N)c1c(Cl)ccc(F)c1Cl [Crizotinib] + CC1(C)CCC(c2ccc(Cl)cc2)=C(CN2CCN(c3ccc(C(=O)NS(=O)(=O)c4ccc(N[C@H](CCN5CCOCC5)CSc5ccccc5)c(S(=O)(=O)C(F)(F)F)c4)cc3)CC2)C1 [Navitoclax] (partner 0.5 µM)
Summary of the method: (§1)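 Medians of duplicate plates are given as relative viability. That measure is the nuclei count in treated wells divided by the count in vehicle wells. Counts were taken on 4× images of lung cancer cell lines in 1536-well plates, 5 days after pin-tool dosing the day after seeding with one drug alone or a fixed anchor-drug dose plus five library-drug doses (not always all listed) in √10 steps.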

[2] = compound: O=C(c1cc(Cc2n[nH]c(=O)c3ccccc23)ccc1F)N1CCN(C(=O)C2CC2)CC1 [Olaparib] + Cc1nc(NC(=O)N2CCC[C@H]2C(N)=O)sc1-c1ccnc(C(C)(C)C(F)(F)F)c1 [Alpelisib] (partner 2 µM)
Summary of the method: as §1

[3] = compound: CC(C)C[C@H](NC(=O)[C@H](CCc1ccccc1)NC(=O)CN1CCOCC1)C(=O)N[C@@H](Cc1ccccc1)C(=O)N[C@@H](CC(C)C)C(=O)[C@@]1(C)CO1 [Carfilzomib] + COc1cc2c(Oc3ccc(NC(=O)C4(C(=O)Nc5ccc(F)cc5)CC4)cc3F)ccnc2cc1OCCCN1CCOCC1 [Foretinib] (partner 0.25 µM)
Summary of the method: as §1

[4] = compound: CC(C)C[C@H](NC(=O)[C@H](CCc1ccccc1)NC(=O)CN1CCOCC1)C(=O)N[C@@H](Cc1ccccc1)C(=O)N[C@@H](CC(C)C)C(=O)[C@@]1(C)CO1 [Carfilzomib] + CC(=O)Nc1cccc(-n2c(=O)n(C3CC3)c(=O)c3c(Nc4ccc(I)cc4F)n(C)c(=O)c(C)c32)c1 [Trametinib] (partner 0.02 µM)
Summary of the method: as §1

NCI-H1793
relative viability ([1]; first compound 0.01 µM): 0.362 | relative viability ([1]; first compound 0.03162 µM): 0.486 | relative viability ([1]; first compound 0.1 µM): 0.384 | relative viability ([1]; first compound 1 µM): 0.529 | relative viability ([2]; first compound 0.08 µM): 0.683 | relative viability ([2]; first compound 0.253 µM): 0.664 | relative viability ([2]; first compound 2.53 µM): 0.768 | relative viability ([2]; first compound 8 µM): 0.601 | relative viability ([3]; first compound 0.003162 µM): 0.664 | relative viability ([3]; first compound 0.01 µM): 0.823 | relative viability ([3]; first compound 0.03162 µM): 0.707 | relative viability ([3]; first compound 0.1 µM): 0.393 | relative viability ([4]; first compound 0.001 µM): 0.38 | relative viability ([4]; first compound 0.003162 µM): 0.497 | relative viability ([4]; first compound 0.01 µM): 0.46 | relative viability ([4]; first compound 0.03162 µM): 0.472 | relative viability ([4]; first compound 0.1 µM): 0.35
